Results taken from the NIST ThermoML archive (doi:10.1021/je400250u).

Columns and labels:
[1] = refractive index (Na D-line) (dimensionless); xn = mol fraction of the nth substance listed; settings: 100 kPa, Liquid, Standard Abbe refractometry
[2] = xn = mol fraction of the nth substance listed; settings: 100 kPa, Liquid; for viscosity: Capillary tube (Ostwald / Ubbelohde) method; for mass density: Vibrating tube method

C1CC[C@H]2CCCC[C@@H]2C1 [trans-decahydronaphthalene] + CCCCCCCCC
Settings | mass density, [2] [kg/m3] | refractive index, [1] | viscosity, [2] [mPa·s]
293.15 K, x1 = 0.1036 | 732.72 | – | 0.772
293.15 K, x1 = 0.2018 | 746.84 | – | 0.836
293.15 K, x1 = 0.3016 | 761.45 | – | 0.912
293.15 K, x1 = 0.4042 | 776.68 | – | 1.004
293.15 K, x1 = 0.4954 | 790.42 | – | 1.109
293.15 K, x1 = 0.6009 | 806.55 | – | 1.253
293.15 K, x1 = 0.6984 | 821.69 | – | 1.409
293.15 K, x1 = 0.8001 | 837.66 | – | 1.635
293.15 K, x1 = 0.8933 | 852.53 | – | 1.864
293.15 K, x1 = 1 | 869.78 | – | 2.112
298.15 K, x1 = 0.1036 | 728.87 | 1.4084 | 0.725
298.15 K, x1 = 0.2018 | 743 | 1.4146 | 0.781
298.15 K, x1 = 0.3016 | 757.63 | 1.4205 | 0.849
298.15 K, x1 = 0.4042 | 772.88 | 1.4273 | 0.934
298.15 K, x1 = 0.4954 | 786.63 | 1.4326 | 1.028
298.15 K, x1 = 0.6009 | 802.78 | 1.4397 | 1.154
298.15 K, x1 = 0.6984 | 817.94 | 1.4459 | 1.305
298.15 K, x1 = 0.8001 | 833.93 | 1.4526 | 1.505
298.15 K, x1 = 0.8933 | 848.8 | 1.4591 | 1.701
298.15 K, x1 = 1 | 866.07 | 1.4662 | 1.925
303.15 K, x1 = 0.1036 | 724.99 | – | 0.681
303.15 K, x1 = 0.2018 | 739.14 | – | 0.732
303.15 K, x1 = 0.3016 | 753.79 | – | 0.795
303.15 K, x1 = 0.4042 | 769.06 | – | 0.871
303.15 K, x1 = 0.4954 | 782.83 | – | 0.957
303.15 K, x1 = 0.6009 | 798.99 | – | 1.075
303.15 K, x1 = 0.6984 | 814.17 | – | 1.213
303.15 K, x1 = 0.8001 | 830.18 | – | 1.393
303.15 K, x1 = 0.8933 | 845.07 | – | 1.568
303.15 K, x1 = 1 | 862.34 | – | 1.769
308.15 K, x1 = 0.1036 | 721.09 | 1.4038 | 0.642
308.15 K, x1 = 0.2018 | 735.26 | 1.4105 | 0.688
308.15 K, x1 = 0.3016 | 749.94 | 1.4163 | 0.746
308.15 K, x1 = 0.4042 | 765.23 | 1.423 | 0.816
308.15 K, x1 = 0.4954 | 779.01 | 1.4286 | 0.893
308.15 K, x1 = 0.6009 | 795.19 | 1.435 | 0.998
308.15 K, x1 = 0.6984 | 810.39 | 1.4418 | 1.127
308.15 K, x1 = 0.8001 | 826.41 | 1.4486 | 1.29
308.15 K, x1 = 0.8933 | 841.33 | 1.455 | 1.447
308.15 K, x1 = 1 | 858.61 | 1.4618 | 1.628
313.15 K, x1 = 0.1036 | 717.18 | – | 0.607
313.15 K, x1 = 0.2018 | 731.37 | – | 0.65
313.15 K, x1 = 0.3016 | 746.07 | – | 0.704
313.15 K, x1 = 0.4042 | 761.38 | – | 0.766
313.15 K, x1 = 0.4954 | 775.18 | – | 0.838
313.15 K, x1 = 0.6009 | 791.38 | – | 0.929
313.15 K, x1 = 0.6984 | 806.6 | – | 1.052
313.15 K, x1 = 0.8001 | 822.64 | – | 1.202
313.15 K, x1 = 0.8933 | 837.57 | – | 1.334
313.15 K, x1 = 1 | 854.88 | – | 1.505
318.15 K, x1 = 0.1036 | 713.25 | 1.3993 | 0.576
318.15 K, x1 = 0.2018 | 727.46 | 1.406 | 0.614
318.15 K, x1 = 0.3016 | 742.18 | 1.4122 | 0.663
318.15 K, x1 = 0.4042 | 757.52 | 1.4187 | 0.723
318.15 K, x1 = 0.4954 | 771.34 | 1.4249 | 0.786
318.15 K, x1 = 0.6009 | 787.56 | 1.4312 | 0.869
318.15 K, x1 = 0.6984 | 802.8 | 1.4379 | 0.984
318.15 K, x1 = 0.8001 | 818.86 | 1.4445 | 1.118
318.15 K, x1 = 0.8933 | 833.81 | 1.4509 | 1.241
318.15 K, x1 = 1 | 851.14 | 1.4581 | 1.394
323.15 K, x1 = 0.1036 | 709.3 | – | 0.547
323.15 K, x1 = 0.2018 | 723.54 | – | 0.583
323.15 K, x1 = 0.3016 | 738.28 | – | 0.627
323.15 K, x1 = 0.4042 | 753.64 | – | 0.682
323.15 K, x1 = 0.4954 | 767.48 | – | 0.742
323.15 K, x1 = 0.6009 | 783.73 | – | 0.821
323.15 K, x1 = 0.6984 | 798.99 | – | 0.922
323.15 K, x1 = 0.8001 | 815.08 | – | 1.041
323.15 K, x1 = 0.8933 | 830.05 | – | 1.156
323.15 K, x1 = 1 | 847.4 | – | 1.295
